Data from patent US8029818B2, “Method of blunting the postprandial glycemic response to a meal” (Abbott Laboratories, priority 2001, dated 2011).

Legend:
[1] = test system: healthy nondiabetic adult subjects; test: 2-hour meal tolerance test (50 g carbohydrate from instant mashed potatoes ±10 g fructose), postprandial glycemic response; assay type: in vivo, human; settings: for Incremental AUC / Incremental peak glucose / Time to peak: Mean ± SEM; for Glycemic index: incremental AUC for treatment/control (no supplemental fructose) × 100
Text: (§1) The primary objective of this study was to determine the effects of the timing of fructose ingestion on the postprandial glycemic response of healthy nondiabetic adult subjects to instant mashed potatoes, a rapidly digested starch. A secondary objective was to evaluate the effects of an acute challenge of 50 g of carbohydrate from instant mashed potatoes ±10 g fructose on subjective gastrointestinal tolerance.
The study followed a double-blind crossover design in which subjects participated in four 2-hour meal tolerance tests on separate occasions. Subjects were randomly assigned to one of 24 treatment sequences. After an overnight fast, subjects consumed 50 g carbohydrate from instant mashed potatoes with or without 10 g supplemental fructose. The effects of the timing of fructose ingestion were evaluated by having the subjects consume 10 g fructose 60, 30, or 0 min before the instant mashed potato meal. A control meal tolerance test was given where subjects received no fructose.
To ensure that subjects had similar glycogen stores on the 4 test days, subjects were instructed to consume a high carbohydrate diet (minimum 150 g carbohydrate per day) for 3 days before each meal tolerance test and were also asked to avoid exercise 24 hours before the experiment. On the evening before each meal tolerance test, all subjects consumed a low-residue dinner consisting of one 8 fl oz (237 ml) can of chocolate Ensure Plus® (Ross Laboratories, Columbus, Ohio) with additional Honey Graham Crunch Ensure® Bars (Ross Laboratories, Columbus, Ohio) to provide one-third of each subject's individual daily caloric requirement as estimated by the Harris-Benedict equation multiplied by an activity factor of 1.3. Subjects were instructed to fast overnight, following their low-residue evening meal, during which they were only allowed to consume water and smoking was prohibited. On the morning of each meal tolerance test, body weight, body temperature, pulse rate and blood pressure were measured by standard procedures. A fasting finger-prick capillary blood sample was obtained and analyzed utilizing two methods of glucose determination. One sample was immediately analyzed for glucose with an Accu-Chek Blood Glucose Monitoring System (Roche Diagnostics, Indianapolis, Ind.). An additional sample was collected into a capillary tube containing EDTA for whole blood glucose analysis (within 30 min of collection) using a YSI analyzer (model YSI 2300 STAT PLUS, Yellow Springs Instruments, Yellow Springs, Ohio). This fasting sample was considered the −60 min time point. According to randomization, subjects then consumed 10 g fructose at −60 min, −30, or 0 min or no supplemental fructose (30 ml water at −60 min). The test meal (50 g carbohydrate from instant mashed potatoes) was given at time 0 and consumed within 10 min. Additional finger-prick capillary blood was obtained at −30, 0, 15, 30, 45, 60, 90 and 120 min postprandial. Subjects were allowed 8 fl oz water (240 ml) during each 2-hour test. Immediately following each trial, body temperature, pulse rate and blood pressure were measured. Subjects returned within 7 days for repeat analysis with the appropriate crossover treatment.
The products tested were instant mashed potatoes (Hungry Jack Mashed Potatoes; Pillsbury Company) and purified crystalline fructose (Wild Oats Market grocery; Columbus, Ohio).
The primary variable for this study was incremental peak plasma glucose response. Secondary variables included incremental area under the curve, time to peak glucose, glycemic index, and subjective gastrointestinal tolerance factors. Exploratory variables included absolute and incremental plasma glucose response at −30, 0, 15, 30, 45, 60, 90, and 120 min postprandial.
A total of 31 healthy nondiabetic (fasting plasma glucose value less than 110 mg/dl; American Diabetes Association, 1997) volunteers (thirteen men and eighteen women) were recruited. […]

[2] = test system: healthy nondiabetic adult subjects; test: Subjective gastrointestinal tolerance questionnaire, 24-h period after the test material; assay type: in vivo, human; settings: for Intensity of Cramping / Intensity of Distention / Intensity of Flatulence / Intensity of Nausea: 100-mm line scale score (0 Absent, 100 Severe); for Intensity of Cramping / Intensity of Distention / Intensity of Flatulence / Intensity of Nausea / Frequency of Cramping / Frequency of Distention / Frequency of Flatulence / Frequency of Nausea: Mean ± SEM, n=31; for Frequency of Cramping / Frequency of Distention / Frequency of Flatulence / Frequency of Nausea: 100-mm line scale score (0 Usual, 100 More than usual)
Text: as §1
Using a questionnaire, subjects were asked to report the frequency and intensity of the following symptoms: nausea, cramping, distention, and flatulence for the 24-h period immediately following consumption of the test material. Intensity and frequency was set to a 100-mm line scale (0 representing “Absent” and 100 “Severe” and 0 representing “Usual” and 100 “More than usual,” respectively). Subjects placed a single perpendicular slash mark across the 100 mm horizontal line to indicate their scores for each of these variables of frequency and intensity. A score of 5 or less was considered not physiologically meaningful.

[3] = test system: rats; settings: fructose intake levels greater than 17% of total Kcal; cited from earlier work
[4] = test system: humans; settings: fructose intake levels greater than 17% of total Kcal; cited from earlier work
[5] = 10 g fructose 60 or 30 min before the meal tolerance test vs fructose with the meal or no supplemental fructose, P<0.05
[6] = Accu-Chek values, 10 g fructose at 0 min (with test meal), n=31
[7] = Accu-Chek values, 10 g fructose at −30 min relative to test meal, n=31
[8] = Accu-Chek values, 10 g fructose at −60 min relative to test meal, n=31
[9] = YSI values (whole blood), 10 g fructose at 0 min (with test meal), n=28
[10] = YSI values (whole blood), 10 g fructose at −30 min relative to test meal, n=25
[11] = YSI values (whole blood), 10 g fructose at −60 min relative to test meal, n=26

O=C(CO)[C@@H](O)[C@H](O)[C@H](O)CO [fructose]
Peak incremental change from baseline for plasma glucose [1, 5]: lower | incremental area under the curve for plasma glucose [1, 5]: lower | incremental change from baseline in plasma glucose at the 0 min time point ([1]; 10 g fructose at −30 min compared to the 0-min time fructose ingestion treatment, P<0.05): increased | incremental change from baseline in plasma glucose at the −30 min time point ([1]; 10 g fructose at −60 min compared to the other treatments, P<0.05): increased | postprandial glycemic response ([1]; 10 g fructose given 30 or 60 min before the meal tolerance test): reduced the postprandial glycemic response | postprandial glycemic response ([1]; 10 g supplemental fructose given with the meal glucose tolerance test, compared to the control): had no effect | Incremental AUC [1, 6]: 3059 ± 246 mg·min/dL | Incremental peak glucose [1, 6]: 65.7 ± 3.2 mg/dL | Time to peak [1, 6]: 38 ± 1.9 min | Glycemic index ([1]; Accu-Chek values, 10 g fructose at 0 min, n=31): 98.8 ± 6.2 | Glycemic index ([1]; Accu-Chek values, 10 g fructose at −30 min, n=31): 80.2 ± 8.5 | Incremental AUC [1, 7]: 2329 ± 210 mg·min/dL | Incremental peak glucose [1, 7]: 49.5 ± 2.5 mg/dL | Time to peak [1, 7]: 36 ± 2.0 min | Glycemic index ([1]; Accu-Chek values, 10 g fructose at −60 min, n=31): 84.1 ± 6.6 | Incremental AUC [1, 8]: 2398 ± 142 mg·min/dL | Incremental peak glucose [1, 8]: 51.6 ± 2.2 mg/dL | Time to peak [1, 8]: 35 ± 1.3 min | Incremental AUC [1, 9]: 2592 ± 213 mg·min/dL | Incremental peak glucose [1, 9]: 56.7 ± 3.0 mg/dL | Time to peak [1, 9]: 37 ± 1.8 min | Incremental AUC [1, 10]: 1880 ± 189 mg·min/dL | Incremental peak glucose [1, 10]: 39.9 ± 2.6 mg/dL | Time to peak [1, 10]: 33 ± 1.5 min | Incremental AUC [1, 11]: 2094 ± 132 mg·min/dL | Incremental peak glucose [1, 11]: 44.4 ± 2.0 mg/dL | Time to peak [1, 11]: 33 ± 1.2 min | Glycemic index ([1]; YSI values, 10 g fructose at 0 min, n=28): 107.1 ± 11.1 | Glycemic index ([1]; YSI values, 10 g fructose at −30 min, n=25): 82.5 ± 10.6 | Glycemic index ([1]; YSI values, 10 g fructose at −60 min, n=26): 89.6 ± 7.5 | Time to peak glucose ([1]; between treatments (fructose at −60, −30, 0 min or none), P>0.05): did not differ | postprandial incremental change from baseline in plasma glucose at 90 and 120 min ([1]; between treatments, P>0.05): did not differ | incremental change from baseline in plasma glucose at 15 min ([1]; fructose at −30 min compared to the control and 0-min time fructose ingestion treatment, P<0.05): higher | incremental change from baseline in plasma glucose over the 30, 45 and 60 min time points ([1]; fructose −60 or −30 min relative to the meal tolerance test): tended to be lower | Intensity of Cramping ([2]; 10 g fructose at 0 min): 3 ± 1.9 | Intensity of Distention ([2]; 10 g fructose at 0 min): 1 ± 0.4 | Intensity of Flatulence ([2]; 10 g fructose at 0 min): 1 ± 0.5 | Intensity of Nausea ([2]; 10 g fructose at 0 min): 0 ± 0.2 | Intensity of Cramping ([2]; 10 g fructose at −30 min): 2 ± 1.6 | Intensity of Distention ([2]; 10 g fructose at −30 min): 3 ± 1.5 | Intensity of Flatulence ([2]; 10 g fructose at −30 min): 5 ± 1.7 | Intensity of Nausea ([2]; 10 g fructose at −30 min): 1 ± 0.4 | Intensity of Cramping ([2]; 10 g fructose at −60 min): 1 ± 0.3 | Intensity of Distention ([2]; 10 g fructose at −60 min): 1 ± 1.0 | Intensity of Flatulence ([2]; 10 g fructose at −60 min): 3 ± 1.5 | Intensity of Nausea ([2]; 10 g fructose at −60 min): 1 ± 0.3 | Frequency of Cramping ([2]; 10 g fructose at 0 min): 7 ± 4.1 | Frequency of Distention ([2]; 10 g fructose at 0 min): 1 ± 0.6 | Frequency of Flatulence ([2]; 10 g fructose at 0 min): 3 ± 1.3 | Frequency of Nausea ([2]; 10 g fructose at 0 min): 1 ± 0.2 | Frequency of Cramping ([2]; 10 g fructose at −30 min): 1 ± 0.2 | Frequency of Distention ([2]; 10 g fructose at −30 min): 4 ± 1.9 | Frequency of Flatulence ([2]; 10 g fructose at −30 min): 7 ± 2.9 | Frequency of Nausea ([2]; 10 g fructose at −30 min): 1 ± 0.2 | Frequency of Cramping ([2]; 10 g fructose at −60 min): 4 ± 3.2 | Frequency of Distention ([2]; 10 g fructose at −60 min): 1 ± 0.3 | Frequency of Flatulence ([2]; 10 g fructose at −60 min): 3 ± 1.7 | Frequency of Nausea ([2]; 10 g fructose at −60 min): 1 ± 0.3 | gastrointestinal symptoms (intensity and frequency of nausea, cramping, distention and flatulence) ([2]; all treatments: 50 g carbohydrate from instant mashed potatoes with or without 10 g supplemental fructose): Minimal effects | effect on blood lipids [3]: cause hypertriacylglycerolemia and hypercholesterolemia | effect on blood lipids [4]: cause hypertriacylglycerolemia and hypercholesterolemia
